Source: ChEMBL document CHEMBL1140254, “A novel [99mTc[triple bond]N]2+ complex of metronidazole xanthate as a potential agent for targeting hypoxia” (Bioorg Med Chem Lett, 2005)

How the values were obtained:
[1] = Biodistribution of the labeled compound in mice stomach 30 min after post-injection; assay type: ADME, organism-based; details: mouse, in vivo, 0.5 h
[2] = Biodistribution of the labeled compound in mice tumor 30 min after post-injection at a dose of 1.42 g; assay type: ADME, organism-based; details: mouse, in vivo, 0.5 h
[3] = Biodistribution of the labeled compound in mice tumor 180 min after post-injection at adose 1.36 g; assay type: ADME, organism-based; details: mouse, in vivo, 3 h
Mus musculus [4] = species: Mus musculus; test: Tumor/blood ratio of the label compound in mice 180 min after post injection; assay type: functional
[5] = Biodistribution of the labeled compound in mice stomach 60 min after post-injection; assay type: ADME, organism-based; details: mouse, in vivo, 1 h
Mus musculus [6] = species: Mus musculus; test: Tumor/muscle ratio of the label compound in mice 30 min after post injection; assay type: functional, Muscle tissue
[7] = Biodistribution of the labeled compound in mice liver 180 min after post-injection; assay type: ADME, organism-based; details: mouse, in vivo, 3 h
Mus musculus [8] = species: Mus musculus; test: Tumor/blood ratio of the label compound in mice 30 min after post injection; assay type: functional
[9] = Biodistribution of the labeled compound in mice heart 180 min after post-injection; assay type: ADME, organism-based; details: mouse, in vivo, 3 h
[10] = Biodistribution of the labeled compound in mice spleen 60 min after post-injection; assay type: ADME, organism-based; details: mouse, in vivo, 1 h
[11] = Biodistribution of the labeled compound in mice bone 60 min after post-injection; assay type: ADME, organism-based, Bone element; details: mouse, in vivo, 1 h
[12] = Biodistribution of the labeled compound in mice kidney 30 min after post-injection; assay type: ADME, organism-based; details: mouse, in vivo, 0.5 h
[13] = Biodistribution of the labeled compound in mice int+GB 60 min after post-injection; assay type: ADME, organism-based; details: mouse, in vivo, 1 h
[14] = Biodistribution of the labeled compound in mice lungs 180 min after post-injection; assay type: ADME, organism-based, Lung; details: mouse, in vivo, 3 h
Mus musculus [15] = species: Mus musculus; test: Tumor/muscle ratio of the label compound in mice 60 min after post injection; assay type: functional, Muscle tissue
[16] = Biodistribution of the labeled compound in mice spleen 180 min after post-injection; assay type: ADME, organism-based; details: mouse, in vivo, 3 h
[17] = Biodistribution of the labeled compound in mice muscle 180 min after post-injection; assay type: ADME, organism-based, Muscle tissue; details: mouse, in vivo, 3 h
[18] = Biodistribution of the labeled compound in mice bone 180 min after post-injection; assay type: ADME, organism-based, Bone element; details: mouse, in vivo, 3 h
[19] = Biodistribution of the labeled compound in mice kidney 60 min after post-injection; assay type: ADME, organism-based; details: mouse, in vivo, 1 h
[20] = Biodistribution of the labeled compound in mice Muscle 30 min after post-injection; assay type: ADME, organism-based, Muscle tissue; details: mouse, in vivo, 0.5 h
[21] = Biodistribution of the labeled compound in mice tumor 60 min after post-injection at adose 1.44 g; assay type: ADME, organism-based; details: mouse, in vivo, 1 h
[22] = Biodistribution of the labeled compound in mice muscle 60 min after post-injection; assay type: ADME, organism-based, Muscle tissue; details: mouse, in vivo, 1 h
Mus musculus [23] = species: Mus musculus; test: Tumor/muscle ratio of the label compound in mice 180 min after post injection; assay type: functional, Muscle tissue
[24] = Biodistribution of the labeled compound in mice lungs 60 min after post-injection; assay type: ADME, organism-based, Lung; details: mouse, in vivo, 1 h
[25] = Biodistribution of the labeled compound in mice blood 30 min after post-injection; assay type: ADME, organism-based; details: mouse, in vivo, 0.5 h
[26] = Biodistribution of the labeled compound in mice lungs 30 min after post-injection; assay type: ADME, organism-based, Lung; details: mouse, in vivo, 0.5 h
[27] = Biodistribution of the labeled compound in mice int +GB 30 min after post-injection; assay type: ADME, organism-based; details: mouse, in vivo, 0.5 h
[28] = Biodistribution of the labeled compound in mice bone 30 min after post-injection; assay type: ADME, organism-based, Bone element; details: mouse, in vivo, 0.5 h
[29] = Biodistribution of the labeled compound in mice spleen 30 min after post-injection; assay type: ADME, organism-based; details: mouse, in vivo, 0.5 h
[30] = Biodistribution of the labeled compound in mice heart 30 min after post-injection; assay type: ADME, organism-based; details: mouse, in vivo, 0.5 h
[31] = Biodistribution of the labeled compound in mice liver 30 min after post-injection; assay type: ADME, organism-based; details: mouse, in vivo, 0.5 h
[32] = Biodistribution of the labeled compound in mice blood 180 min after post-injection; assay type: ADME, organism-based; details: mouse, in vivo, 3 h
[33] = Biodistribution of the labeled compound in mice int+GB 180 min after post-injection; assay type: ADME, organism-based; details: mouse, in vivo, 3 h
[34] = Biodistribution of the labeled compound in mice kidney 180 min after post-injection; assay type: ADME, organism-based; details: mouse, in vivo, 3 h
[35] = Biodistribution of the labeled compound in mice liver 60 min after post-injection; assay type: ADME, organism-based; details: mouse, in vivo, 1 h
Mus musculus [36] = species: Mus musculus; test: Tumor/blood ratio of the label compound in mice 60 min after post injection; assay type: functional
[37] = Biodistribution of the labeled compound in mice stomach 180 min after post-injection; assay type: ADME, organism-based; details: mouse, in vivo, 3 h
[38] = Biodistribution of the labeled compound in mice heart 60 min after post-injection; assay type: ADME, organism-based; details: mouse, in vivo, 1 h
[39] = Biodistribution of the labeled compound in mice blood 60 min after post-injection; assay type: ADME, organism-based; details: mouse, in vivo, 1 h

Biodistribution [1]: 1.68 | Biodistribution [2]: 0.4 | Biodistribution [3]: 0.41 | Biodistribution [5]: 0.74 | Biodistribution [7]: 18.37 | Biodistribution [9]: 0.27 | Biodistribution [10]: 0.34 | Biodistribution [11]: 2.43 | Biodistribution [12]: 4.25 | Biodistribution [13]: 20.19 | Biodistribution [14]: 0.75 | Biodistribution [16]: 0.27 | Biodistribution [17]: 4.2 | Biodistribution [18]: 2.27 | Biodistribution [19]: 3.18 | Biodistribution [20]: 11.19 | Biodistribution [21]: 0.43 | Biodistribution [22]: 6.43 | Biodistribution [24]: 1.09 | Biodistribution [25]: 11.45 | Biodistribution [26]: 1.59 | Biodistribution [27]: 12.46 | Biodistribution [28]: 2.59 | Biodistribution [29]: 0.25 | Biodistribution [30]: 0.38 | Biodistribution [31]: 29.32 | Biodistribution [32]: 3.95 | Biodistribution [33]: 32.52 | Biodistribution [34]: 2.87 | Biodistribution [35]: 23.53 | Biodistribution [37]: 0.71 | Biodistribution [38]: 0.27 | Biodistribution [39]: 6.75
SMILES: Cc1ncc([N+](=O)[O-])n1CCOC(=S)[S-].[Na+] [METRONIDAZOLE XANTHATE]
Ratio (Mus musculus [4]): 0.62 | Ratio (Mus musculus [6]): 1.19 | Ratio (Mus musculus [8]): 0.2 | Ratio (Mus musculus [15]): 2.15 | Ratio (Mus musculus [23]): 3.35 | Ratio (Mus musculus [36]): 0.36
